Test results published in the Kinase Knowledgebase extract (Sharma et al. 2016).

target: MAPK14 (human) (UniProt Q16539); assay: Inhibition of MAPK14 Kinase Activity
Sequence (Q16539 whole entry, looked up): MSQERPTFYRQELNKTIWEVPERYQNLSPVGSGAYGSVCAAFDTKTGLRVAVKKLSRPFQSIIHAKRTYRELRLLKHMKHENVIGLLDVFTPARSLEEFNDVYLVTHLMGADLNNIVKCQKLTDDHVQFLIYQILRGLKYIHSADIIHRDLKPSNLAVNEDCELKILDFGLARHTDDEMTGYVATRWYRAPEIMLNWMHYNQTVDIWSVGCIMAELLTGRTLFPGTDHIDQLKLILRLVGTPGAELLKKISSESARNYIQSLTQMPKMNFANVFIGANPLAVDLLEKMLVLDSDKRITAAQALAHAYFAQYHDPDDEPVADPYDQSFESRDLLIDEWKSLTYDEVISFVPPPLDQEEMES

| IC50 [nM] | SMILES |
| --- | --- |
| ≤ 1000 | CCC(CO)NCc1nc(-c2ccc(F)cc2)c(-c2nc(C(=O)NC(C)C)cs2)o1 (configuration not stated) |
| ≤ 1000 | CC(C)NC(=O)c1csc(-c2oc(CNC(=O)c3ccc(F)cc3Cl)nc2-c2ccc(F)cc2)n1 |
| ≤ 1000 | CC(=O)NC(Cc1ccc(O)cc1)C(=O)NCc1nc(-c2ccc(F)cc2)c(-c2nc(C(=O)NC(C)C)cs2)o1 (configuration not stated) |
| ≤ 1000 | CC(C)NC(=O)c1csc(-c2oc(CNC(=O)c3ccccc3[N+](=O)[O-])nc2-c2ccc(F)cc2)n1 |
| ≤ 1000 | CC(C)C(CO)NC(=O)c1csc(-c2c(-c3ccc(F)cc3)n[nH]c2C2CCNCC2)n1 (configuration not stated) |
| ≤ 1000 | Cc1nc(-c2ccc(F)cc2)c(-c2nc(C(=O)N[C@H](CO)Cc3ccccc3)cs2)s1 |
| ≤ 1000 | Cc1onc(-c2ccc(Cl)cc2)c1-c1ccn(C(=O)NC(C)CO)n1 (configuration not stated) |
| ≤ 1000 | CC(=O)c1cccc(NCc2onc(-c3ccc(F)cc3)c2-c2nc(C(=O)NC(C)C)cs2)c1 |
| ≤ 1000 | Cc1c(C(=O)N2CCC(c3[nH]nc(-c4ccc(F)cc4)c3-c3nc(C(=O)NC(C)C)cs3)CC2)oc2ccccc12 |
| ≤ 1000 | CC(=O)C(=O)N1CCC(c2[nH]nc(-c3ccc(F)cc3)c2-c2nc(C(=O)NC(C)C)cs2)CC1 |
| ≤ 1000 | COc1cc(C=CC(=O)NCc2nc(-c3ccc(F)cc3)c(-c3nc(C(=O)NC(C)C)cs3)o2)ccc1O |
| ≤ 1000 | CC(C)NC(=O)c1csc(-c2oc(CNC(=O)C=Cc3ccccc3)nc2-c2ccc(F)cc2)n1 |
| ≤ 1000 | COc1cc(C(=O)NCc2nc(-c3ccc(F)cc3)c(-c3nc(C(=O)NC(C)C)cs3)o2)c([N+](=O)[O-])cc1OC |
| ≤ 1000 | O=C(NCc1ccccc1F)c1csc(-c2c(-c3ccc(F)cc3)n[nH]c2C2CCNCC2)n1 |
| ≤ 1000 | CC(C)NC(=O)c1csc(-c2c(-c3ccc(F)cc3)n[nH]c2C2CCN(C(=O)C3CN(C(=O)OC(C)(C)C)CCN3)CC2)n1 (configuration not stated) |
| ≤ 1000 | Cc1nc(-c2ccc(F)cc2)c(-c2nc(C(=O)NC(CO)C(C)C)cs2)s1 (configuration not stated) |
| ≤ 1000 | CC(C)NC(=O)c1csc(-c2oc(CNC(=O)Cc3cccc4ccccc34)nc2-c2ccc(F)cc2)n1 |
| ≤ 1000 | CC(C)NC(=O)c1csc(-c2oc(CNC(=O)CCc3ccccc3O)nc2-c2ccc(F)cc2)n1 |
| ≤ 1000 | CC(C)NC(=O)c1csc(-c2c(-c3ccc(F)cc3)n[nH]c2C2CCN(C(=O)C(C)(C)O)CC2)n1 |
| ≤ 1000 | CC(C)NC(=O)c1csc(-c2c(-c3ccc(F)cc3)n[nH]c2C2CCN(C(=O)c3ncc[nH]3)CC2)n1 |
| ≤ 1000 | CC(CO)NC(=O)c1csc(-c2c(-c3ccc(F)cc3)n[nH]c2C2CCNCC2)n1 (configuration not stated) |
| ≤ 1000 | CC(C)NC(=O)c1csc(-c2oc(CNC(=O)c3c(F)cccc3Cl)nc2-c2ccc(F)cc2)n1 |

| IC50 [nM] | SMILES |
| --- | --- |
| ≤ 1000 | CC(C)NC(=O)c1csc(-c2oc(CNC(=O)C=Cc3ccccc3F)nc2-c2ccc(F)cc2)n1 |
| ≤ 1000 | CCCCOc1ccc(C(=O)N2CCC(c3[nH]nc(-c4ccc(F)cc4)c3-c3nc(C(=O)NC(C)C)cs3)CC2)cc1 |
| ≤ 1000 | CC(C)NC(=O)c1csc(-c2oc(CNC(=O)c3ccc(-c4ccc(O)cc4)cc3)nc2-c2ccc(F)cc2)n1 |
| ≤ 1000 | Cc1nc(-c2ccc(F)cc2)c(-c2nc(C(=O)N3CCN(c4ccccc4C#N)CC3)cs2)s1 |
| ≤ 1000 | COc1cc(OC)c(C(=O)N2CCN(Cc3nc(-c4ccc(F)cc4)c(-c4nc(C(=O)NC(C)C)cs4)o3)CC2)c(OC)c1 |
| ≤ 1000 | CCOC(=O)CC(=O)N1CCN(Cc2nc(-c3ccc(F)cc3)c(-c3nc(C(=O)NC(C)C)cs3)o2)CC1 |
| ≤ 1000 | CC(C)NC(=O)c1csc(-c2oc(CNC(=O)C(C)(C)C)nc2-c2ccc(F)cc2)n1 |
| ≤ 1000 | CC(C)NC(=O)c1csc(-c2oc(CNC(=O)c3ncc[nH]3)nc2-c2ccc(F)cc2)n1 |
| ≤ 1000 | Cc1nc(-c2ccc(F)cc2)c(-c2nc(C(=O)NCc3cccs3)cs2)s1 |
| ≤ 1000 | CC(C)NC(=O)c1csc(-c2oc(CNC(=O)c3ccc(Cl)cc3Cl)nc2-c2ccc(F)cc2)n1 |
| ≤ 1000 | CC(C)NC(=O)c1csc(-c2c(-c3ccc(F)cc3)n[nH]c2C2CCN(C(=O)[C@H](C)O)CC2)n1 |
| ≤ 1000 | CC(C)NC(=O)c1csc(-c2oc(CNCCc3ccc(O)cc3)nc2-c2ccc(F)cc2)n1 |
| ≤ 1000 | CC(=O)N1CCC(n2cnc(-c3ccc(Cl)cc3)c2-c2nc(C(=O)NC(C)C)cs2)CC1 |
| ≤ 1000 | COc1ccc(NC(=O)c2csc(-c3sc(C)nc3-c3ccc(F)cc3)n2)cc1OC |
| ≤ 1000 | COc1ccccc1NC(=O)c1csc(-c2sc(C)nc2-c2ccc(F)cc2)n1 |
| ≤ 1000 | CC(C)NC(=O)c1csc(-c2c(-c3ccc(F)cc3)n[nH]c2C2CCN(C(=O)c3ccnc(Cl)c3)CC2)n1 |
| ≤ 1000 | CONC(=O)c1csc(-c2c(-c3ccc(F)cc3)n[nH]c2C2CCNCC2)n1 |
| ≤ 1000 | CC(C)NC(=O)c1csc(-c2oc(CN3CCN(C(=O)C4CCc5ccccc54)CC3)nc2-c2ccc(F)cc2)n1 (configuration not stated) |
| ≤ 1000 | COc1ccc([N+](=O)[O-])c(C(=O)NCc2nc(-c3ccc(F)cc3)c(-c3nc(C(=O)NC(C)C)cs3)o2)c1 |
| ≤ 1000 | Cc1nc(-c2ccc(F)cc2)c(-c2nc(C(=O)NCc3cccc(C(F)(F)F)c3)cs2)s1 |
| ≤ 1000 | CCNC(=O)c1csc(-c2c(-c3ccc(F)cc3)n[nH]c2C2CCN(C(=O)CO)CC2)n1 |
| ≤ 1000 | Cc1nc(-c2ccc(F)cc2)c(-c2nc(C(=O)NCCc3ccccc3)cs2)s1 |

| IC50 [nM] | SMILES |
| --- | --- |
| ≤ 1000 | Cc1nc(-c2ccc(F)cc2)c(-c2nc(C(=O)NCc3ccccc3C)cs2)s1 |
| ≤ 1000 | CC(C)NC(=O)c1csc(-c2oc(CN3CCN(C(=O)C=Cc4ccccc4O)CC3)nc2-c2ccc(F)cc2)n1 |
| ≤ 1000 | Cc1ccc([N+](=O)[O-])c(C(=O)NCc2nc(-c3ccc(F)cc3)c(-c3nc(C(=O)NC(C)C)cs3)o2)c1 |
| ≤ 1000 | Cc1nc(-c2ccc(F)cc2)c(-c2nc(C(=O)NCc3ccc(F)c(Cl)c3)cs2)s1 |
| ≤ 1000 | CC(C)NC(=O)c1csc(-c2oc(CNC(=O)C3CN(C(=O)OC(C)(C)C)CCN3)nc2-c2ccc(F)cc2)n1 (configuration not stated) |
| ≤ 1000 | Cc1nc(-c2ccc(F)cc2)c(-c2nc(C(=O)Nc3c(C)cccc3C(C)(C)C)cs2)s1 |
| ≤ 1000 | COc1ccc(OC)c(CCNC(=O)c2csc(-c3sc(C)nc3-c3ccc(F)cc3)n2)c1 |
| ≤ 1000 | O=C(NCCO)c1csc(-c2c(-c3ccc(F)cc3)n[nH]c2C2CCNCC2)n1 |
| ≤ 1000 | Cc1nc(-c2ccc(F)cc2)c(-c2nc(C(=O)NCc3ccc(N(C)C)cc3)cs2)s1 |
| ≤ 1000 | CC(C)NC(=O)c1csc(-c2oc(CN3CCN(C(=O)c4cc([N+](=O)[O-])ccc4Cl)CC3)nc2-c2ccc(F)cc2)n1 |
| ≤ 1000 | Cc1nc(-c2ccc(F)cc2)c(-c2nc(C(=O)NCCCN(C)c3ccccc3)cs2)s1 |
| ≤ 1000 | CC(C)NC(=O)c1csc(-c2oc(CNC(=O)c3ccccc3Cl)nc2-c2ccc(F)cc2)n1 |
| ≤ 1000 | C#CCNC(=O)c1csc(-c2c(-c3ccc(F)cc3)ncn2C)n1 |
| ≤ 1000 | CC(C)NC(=O)c1csc(-c2oc(CNC(=O)c3cc(Cl)ccc3Cl)nc2-c2ccc(F)cc2)n1 |
| ≤ 1000 | CC(C)NC(=O)c1csc(-c2oc(CN3CCN(C(=O)C(Cc4ccc(O)cc4)NC(=O)OC(C)(C)C)CC3)nc2-c2ccc(F)cc2)n1 (configuration not stated) |
| ≤ 1000 | CC(C)NC(=O)c1csc(-c2oc(CNC3CCN(Cc4ccccc4)C3)nc2-c2ccc(F)cc2)n1 (configuration not stated) |
| ≤ 1000 | O=C(NCc1ccncc1)c1csc(-c2c(-c3ccc(F)cc3)n[nH]c2C2CCNCC2)n1 |
| ≤ 1000 | CC(C)NC(=O)c1csc(-c2c(-c3ccc(F)cc3)n[nH]c2C2CCN(C(=O)C(F)(F)F)CC2)n1 |
| ≤ 1000 | Cc1onc(-c2ccc(F)cc2F)c1-c1ccn(C(=O)NC(C)C)n1 |
| ≤ 1000 | CC(C)NC(=O)c1csc(-c2oc(CNC(=O)c3cc(Cl)c(O)c(Cl)c3)nc2-c2ccc(F)cc2)n1 |
| ≤ 1000 | CC(C)NC(=O)c1csc(-c2c(-c3ccc(F)cc3)n[nH]c2C2CCN(C(=O)C(C(C)C)N(C)C(=O)OC(C)(C)C)CC2)n1 (configuration not stated) |
| ≤ 1000 | CC(C)NC(=O)c1csc(-c2c(-c3ccc(F)cc3)n[nH]c2C2CCN(C(=O)C3CC(O)CN3C(=O)OC(C)(C)C)CC2)n1 (configuration not stated) |

| IC50 [nM] | SMILES |
| --- | --- |
| ≤ 1000 | CC(C)NC(=O)c1csc(-c2oc(CN3CCN(C(=O)C4CCCCC4)CC3)nc2-c2ccc(F)cc2)n1 |
| ≤ 1000 | Cc1nc(-c2ccc(F)cc2)c(-c2nc(C(=O)NCCc3c[nH]c4ccccc34)cs2)s1 |
| ≤ 1000 | CC(C)NC(=O)c1csc(-c2oc(CNC(=O)CC3=CC(Cl)=C(O)OC3)nc2-c2ccc(F)cc2)n1 |
| ≤ 1000 | CC(C)NC(=O)c1csc(-c2oc(CN3CCN(C(=O)c4ccc(O)cc4O)CC3)nc2-c2ccc(F)cc2)n1 |
| ≤ 1000 | Cc1nc(-c2ccc(F)cc2)c(-c2nc(C(=O)NC3CCN(Cc4ccccc4)C3)cs2)s1 (configuration not stated) |
| ≤ 1000 | COc1ccc(CCNC(=O)c2csc(-c3sc(C)nc3-c3ccc(F)cc3)n2)cc1 |
| ≤ 1000 | Cc1nc(-c2ccc(F)cc2)c(-c2nc(C(=O)NCCc3cccc(Cl)c3)cs2)s1 |
| ≤ 1000 | CC(=O)Nc1ccc(NC(=O)c2csc(-c3sc(C)nc3-c3ccc(F)cc3)n2)cn1 |
| ≤ 1000 | COc1ccc(C(=O)N2CCN(Cc3nc(-c4ccc(F)cc4)c(-c4nc(C(=O)NC(C)C)cs4)o3)CC2)cc1O |
| ≤ 1000 | CC(C)NC(=O)c1csc(-c2oc(CNC(=O)c3cccc(Cl)c3[N+](=O)[O-])nc2-c2ccc(F)cc2)n1 |
| ≤ 1000 | Cc1nc(-c2ccc(F)cc2)c(-c2nc(C(=O)NCc3ccc(Cl)c(Cl)c3)cs2)s1 |
| ≤ 1000 | Cc1nc(-c2ccc(F)cc2)c(-c2nc(C(=O)NCc3ccc(C)c(C)c3)cs2)s1 |
| ≤ 1000 | CC(C)NC(=O)c1csc(-c2oc(CNC(=O)c3cccc(Cl)c3Cl)nc2-c2ccc(F)cc2)n1 |
| ≤ 1000 | Cc1cc(C(=O)N2CCN(Cc3nc(-c4ccc(F)cc4)c(-c4nc(C(=O)NC(C)C)cs4)o3)CC2)n[nH]1 |
| ≤ 1000 | COc1cc(C=CC(=O)N2CCN(Cc3nc(-c4ccc(F)cc4)c(-c4nc(C(=O)NC(C)C)cs4)o3)CC2)ccc1O |
| ≤ 1000 | Cc1nc(-c2ccc(F)cc2)c(-c2nc(C(=O)NC3CCCC3)cs2)s1 |
| ≤ 1000 | C#CCNC(=O)c1csc(-c2c(-c3ccc(F)cc3)n[nH]c2C)n1 |
| ≤ 1000 | Cc1onc(-c2ccc(Cl)cc2)c1-c1ccn(C(=O)NC(C)C)n1 |
| ≤ 1000 | COC[C@H]1CCCN1C(=O)c1csc(-c2sc(C)nc2-c2ccc(F)cc2)n1 |
| ≤ 1000 | CC(C)NC(=O)c1csc(-c2oc(CNC(=O)c3cc4cc(Cl)ccc4o3)nc2-c2ccc(F)cc2)n1 |

| SMILES | IC50 [nM] |
| --- | --- |
| CC(C)NC(=O)c1csc(-c2oc(CN3CCN(C(=O)Cc4ccccc4O)CC3)nc2-c2ccc(F)cc2)n1 | ≤ 1000 |
